Data published in US8889874B2, “Imidazolone-chalcone derivatives as potential anticancer agent and process for the preparation thereof” (Council of Scientific and Industrial Research, priority 2010, dated 2014).
Read-outs that look alike come from different tables or passages of the source.

Columns and labels:
Assay in all cases: NCI anticancer screen, SRB assay, 48 h
Assay type in all cases: cell-based, human
[1] = tested on: A549/ATCC (non-small cell lung); conditions: Homo sapiens
Method in brief: (§1)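 Sulforhodamine B protein assay read cell growth after 48 h of continuous compound exposure. Dose-response curves per cell line used at least five 10-fold-diluted concentrations, within a panel of fifty-three human lines from nine tumour types.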

[2] = tested on: ACHN (renal); conditions: Homo sapiens
Method in brief: as §1

[3] = tested on: CAKI-1 (renal); conditions: Homo sapiens
Method in brief: as §1

[4] = tested on: COLO 205 (colon); conditions: Homo sapiens, COLO 205
Method in brief: as §1

[5] = tested on: EKVX (non-small cell lung); conditions: Homo sapiens
Method in brief: as §1

[6] = tested on: HCT-116 (colon); conditions: Homo sapiens
Method in brief: as §1

[7] = tested on: HOP-62 (non-small cell lung); conditions: Homo sapiens
Method in brief: as §1

[8] = tested on: HT29 (colon); conditions: Homo sapiens
Method in brief: as §1

[9] = tested on: KM12 (colon); conditions: Homo sapiens
Method in brief: as §1

[10] = tested on: M14 (melanoma); conditions: Homo sapiens
Method in brief: as §1

[11] = tested on: MALME-3M (melanoma); conditions: Homo sapiens
Method in brief: as §1

[12] = tested on: NCI-H226 (non-small cell lung); conditions: Homo sapiens
Method in brief: as §1

[13] = tested on: NCI-H23 (non-small cell lung); conditions: Homo sapiens
Method in brief: as §1

[14] = tested on: NCI-H322M (non-small cell lung); conditions: Homo sapiens
Method in brief: as §1

[15] = tested on: NCI-H522 (non-small cell lung); conditions: Homo sapiens
Method in brief: as §1

[16] = tested on: NCI/ADR-RES (ovarian); conditions: Homo sapiens, NCI/ADR-RES
Method in brief: as §1

[17] = tested on: OVCAR-3 (ovarian); conditions: Homo sapiens
Method in brief: as §1

[18] = tested on: OVCAR-4 (ovarian); conditions: Homo sapiens
Method in brief: as §1

[19] = tested on: OVCAR-8 (ovarian); conditions: Homo sapiens
Method in brief: as §1

[20] = tested on: RPMI-8226 (leukemia cell line); conditions: Homo sapiens
Method in brief: as §1

[21] = tested on: RXF 393 (renal); conditions: Homo sapiens
Method in brief: as §1

[22] = tested on: SK-MEL-2 (melanoma); conditions: Homo sapiens
Method in brief: as §1

[23] = tested on: SK-MEL-28 (melanoma); conditions: Homo sapiens
Method in brief: as §1

[24] = tested on: SK-OV-3 (ovarian); conditions: Homo sapiens
Method in brief: as §1

[25] = tested on: SNB-19 (CNS); conditions: Homo sapiens
Method in brief: as §1

[26] = tested on: SNB-75 (CNS); conditions: Homo sapiens
Method in brief: as §1

[27] = tested on: TD-47D (breast); conditions: Homo sapiens
Method in brief: as §1

[28] = tested on: UACC-257 (melanoma); conditions: Homo sapiens
Method in brief: as §1

[29] = tested on: UACC-62 (melanoma); conditions: Homo sapiens
Method in brief: as §1

[30] = tested on: UO-31 (renal); conditions: Homo sapiens
Method in brief: as §1

[31] = 48 h exposure, SRB, read-out: GI50
[32] = read-out: pGI50 (-log of molar concentration causing 50% inhibition of net cell growth) (converted)
[33] = COLO205, read-out: pGI50 (-log of molar concentration causing 50% inhibition of net cell growth) (converted)
[34] = HT-29, 48 h exposure, SRB, read-out: GI50
[35] = HT-29, read-out: pGI50 (-log of molar concentration causing 50% inhibition of net cell growth) (converted)
[36] = Malme-3M, read-out: pGI50 (-log of molar concentration causing 50% inhibition of net cell growth) (converted)
[37] = MALME-3M, 48 h exposure, SRB, read-out: GI50
[38] = NCl/ADR-RES, 48 h exposure, SRB, read-out: GI50
[39] = RXF 393, 48 h exposure, SRB, read-out: GI50
[40] = RXF-393, read-out: pGI50 (-log of molar concentration causing 50% inhibition of net cell growth) (converted)

For `O=C(/C=C/c1cccc(O)c1)c1cccc(-n2cc(-c3ccc(Cl)cc3)[nH]c2=O)c1` [4f, 4-(4-chlorophenyl)-1-3-[(E)-3-(3-hydroxyphenyl)-2-propenoyl]phenyl-2,3-dihydro-1H-2-imidazolone], the GI50 [1, 31] was 3550 nM, the GI50 [1, 32] was 3550 nM and the GI50 [2, 31] was 1840 nM. For the same molecule, the GI50 [2, 32] was 1820 nM, the GI50 [3, 31] was 1720 nM and the GI50 [3, 32] was 1740 nM. For the same molecule, the GI50 [4, 33] was 2290 nM, the GI50 [4, 31] was 2290 nM and the GI50 [5, 31] was 2400 nM. It also gave a GI50 [5, 32] of 2400 nM, a GI50 [6, 31] of 1230 nM and a GI50 [6, 32] of 1230 nM. For the same molecule, the GI50 [7, 31] was 2360 nM, the GI50 [7, 32] was 2340 nM and the GI50 [8, 34] was 1900 nM. The GI50 [8, 35] was 1910 nM, the GI50 [9, 31] was 1340 nM and the GI50 [9, 32] was 1350 nM. The GI50 [10, 31] was 2010 nM, the GI50 [10, 32] was 2000 nM and the GI50 [11, 36] was 1820 nM. The GI50 [11, 37] was 1830 nM, the GI50 [12, 31] was 2310 nM and the GI50 [12, 32] was 2290 nM. For the same molecule, the GI50 [13, 31] was 2780 nM, the GI50 [13, 32] was 2750 nM and the GI50 [14, 31] was 2520 nM. For the same molecule, the GI50 [14, 32] was 2510 nM, the GI50 [15, 31] was 1650 nM and the GI50 [15, 32] was 1660 nM. The GI50 [16, 38] was 2200 nM, the GI50 [16, 32] was 2190 nM and the GI50 [17, 31] was 1560 nM. It also gave a GI50 [17, 32] of 1550 nM, a GI50 [18, 31] of 2210 nM and a GI50 [18, 32] of 2190 nM. The GI50 [19, 31] was 990 nM, the GI50 [19, 32] was 1000 nM and the GI50 [20, 31] was 1550 nM. For the same molecule, the GI50 [20, 32] was 1550 nM, the GI50 [21, 39] was 1510 nM and the GI50 [21, 40] was 1510 nM. It also gave a GI50 [22, 31] of 2070 nM, a GI50 [22, 32] of 2090 nM and a GI50 [23, 31] of 3640 nM. The GI50 [23, 32] was 3630 nM, the GI50 [24, 31] was 4210 nM and the GI50 [24, 32] was 4170 nM. For the same molecule, the GI50 [25, 31] was 1920 nM, the GI50 [25, 32] was 1910 nM and the GI50 [26, 31] was 1460 nM. For the same molecule, the GI50 [26, 32] was 1450 nM, the GI50 [27, 31] was 1920 nM and the GI50 [27, 32] was 1910 nM. It also gave a GI50 [28, 31] of 4070 nM, a GI50 [28, 32] of 4070 nM and a GI50 [29, 31] of 1850 nM. It also gave a GI50 [29, 32] of 1860 nM, a GI50 [30, 31] of 550 nM and a GI50 [30, 32] of 550 nM.
`COc1cc(/C=C/C(=O)c2cccc(-n3cc(-c4ccccc4)[nH]c3=O)c2)ccc1O` [3a, 1-3-[(E)-3-(4-hydroxy-3-methoxyphenyl)-2-propenoyl]phenyl-4-phenyl-2,3-dihydro-1H-2-imidazolone] was tested, and the GI50 [1, 31] was 3850 nM, the GI50 [1, 32] was 3890 nM and the GI50 [2, 31] was 2500 nM. The GI50 [2, 32] was 2510 nM, the GI50 [3, 31] was 2190 nM and the GI50 [3, 32] was 2190 nM. It also gave a GI50 [4, 33] of 2190 nM, a GI50 [4, 31] of 2210 nM and a GI50 [5, 31] of 3900 nM. It also gave a GI50 [5, 32] of 3890 nM, a GI50 [6, 31] of 1400 nM and a GI50 [6, 32] of 1410 nM. It also gave a GI50 [7, 31] of 1480 nM, a GI50 [7, 32] of 1480 nM and a GI50 [8, 34] of 3770 nM. For the same molecule, the GI50 [8, 35] was 3800 nM, the GI50 [9, 31] was 1610 nM and the GI50 [9, 32] was 1620 nM. It also gave a GI50 [10, 31] of 2610 nM, a GI50 [10, 32] of 2630 nM and a GI50 [11, 36] of 2690 nM. For the same molecule, the GI50 [11, 37] was 2670 nM, the GI50 [12, 31] was 2600 nM and the GI50 [12, 32] was 2570 nM. For the same molecule, the GI50 [13, 31] was 2020 nM, the GI50 [13, 32] was 2040 nM and the GI50 [14, 31] was 3390 nM. It also gave a GI50 [14, 32] of 3390 nM, a GI50 [15, 31] of 2360 nM and a GI50 [15, 32] of 2340 nM. It also gave a GI50 [16, 38] of 2920 nM, a GI50 [16, 32] of 2950 nM and a GI50 [17, 31] of 2290 nM. For the same molecule, the GI50 [17, 32] was 2290 nM, the GI50 [18, 31] was 5190 nM and the GI50 [18, 32] was 5250 nM. It also gave a GI50 [19, 31] of 4110 nM, a GI50 [19, 32] of 4070 nM and a GI50 [20, 31] of 1670 nM. It also gave a GI50 [20, 32] of 1660 nM, a GI50 [21, 39] of 2270 nM and a GI50 [21, 40] of 2290 nM. It also gave a GI50 [22, 31] of 3650 nM, a GI50 [22, 32] of 3630 nM and a GI50 [23, 31] of 1850 nM. It also gave a GI50 [23, 32] of 1860 nM, a GI50 [24, 31] of 3760 nM and a GI50 [24, 32] of 3800 nM. For the same molecule, the GI50 [25, 31] was 2960 nM, the GI50 [25, 32] was 2950 nM and the GI50 [26, 31] was 3900 nM. It also gave a GI50 [26, 32] of 3890 nM, a GI50 [27, 31] of 2700 nM and a GI50 [27, 32] of 2690 nM. For the same molecule, the GI50 [28, 31] was 6810 nM, the GI50 [28, 32] was 6760 nM and the GI50 [29, 31] was 2010 nM. The GI50 [29, 32] was 2000 nM, the GI50 [30, 31] was 2180 nM and the GI50 [30, 32] was 2190 nM.
